We go through eleven compounds from ChEMBL document CHEMBL1201862, “PubChem BioAssay data set” (2004).

One may read the GI50 as the concentration that inhibits growth by half.

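Cultured in 96-well plates, cells were exposed to test compound for 48 hours across five concentrations. GI50 is the concentration that inhibits growth by half.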 Active and inactive are the calls of the source. No stated cut-off is given here; in the data, active = GI50 up to about 1.1 µM and inactive = higher.

Test systems include CCRF-CEM; COLO 205; HOP-92; Hs-578T; K562; LOX IMVI; MCF7; MDA-N; NCI-H23; OVCAR-4; RXF 393; SF-268; SN12C; SNB-19; SR; SW-620; U-251; UACC-257; CAKI-1; SK-MEL-5.
Common to all, as to experiment: DTP human tumour cell line panel, 48 h

As to `CC(C)(C)CNCCCNc1ccc(Cl)cc1`, the GI50 was 35.8 µM (inactive) in the assay on CCRF-CEM; 21 µM (inactive) in the assay on COLO 205; 13.6 µM (inactive) with HOP-92; 40.1 µM (inactive) in the assay on Hs-578T; < 0.01 µM (active) in the assay on K562; 25.3 µM (inactive) with LOX IMVI. For the same compound, the GI50 in the assay with MCF7 is 11.9 µM (inactive); in the assay with MDA-N, 46 µM (inactive); in the assay with NCI-H23 it was > 100 µM (inactive); in the assay on OVCAR-4 it was 60.8 µM (inactive); in the assay with RXF 393, 15.7 µM (inactive); in the assay with SF-268 it was 65.6 µM (inactive). Further, the GI50 with SN12C was 28.7 µM (inactive); in the assay with SNB-19, > 100 µM (inactive); in the assay with SR it was 5.41 µM (inactive); with SW-620 it was > 100 µM (inactive); with U-251, > 100 µM (inactive); in the assay on UACC-257, 22.8 µM (inactive).
Turning to `Cc1cc(S(=O)(=O)/N=C(\NN)Nc2ccc(Cl)cc2)c(S)cc1Cl`, the GI50 in the assay on CAKI-1 is 19.9 µM (inactive); in the assay with CCRF-CEM it was 3.28 µM (inactive); in the assay on COLO 205 it was 13.4 µM (inactive); in the assay with HOP-92, 34.4 µM (inactive); with Hs-578T, 1.17 µM (inactive); in the assay on K562 it was 2.13 µM (inactive). Moreover, the GI50 in the assay on LOX IMVI is 13.9 µM (inactive); with MCF7, 14.8 µM (inactive); in the assay on MDA-N it was 8.87 µM (inactive); in the assay with OVCAR-4, 13.2 µM (inactive); in the assay on RXF 393, 28.6 µM (inactive); in the assay on SF-268, 15.6 µM (inactive). In addition, the GI50 in the assay with SK-MEL-5 is 4.94 µM (inactive); with SN12C, 22.8 µM (inactive); in the assay on SNB-19 it was 11.5 µM (inactive); with SR, 3.76 µM (inactive); with SW-620, 11.1 µM (inactive); in the assay with U-251, 6.87 µM (inactive). The GI50 in the assay with UACC-257 was 19.3 µM (inactive).
On to `C=C(C)C(=O)OC1CC2=CC(CC3(C)OC3C3OC(=O)C(=C)C13)OC2=O` (configuration not stated), for which the GI50 in the assay with CAKI-1 was 4.58 µM (inactive); in the assay with COLO 205, 2.91 µM (inactive); in the assay on HOP-92, 2.9 µM (inactive); in the assay on Hs-578T, 22.6 µM (inactive); in the assay on LOX IMVI it was 4.14 µM (inactive); in the assay with MCF7 it was 3.81 µM (inactive). Further, the GI50 in the assay on MDA-N was > 10 µM (inactive); with NCI-H23, 15.4 µM (inactive); in the assay on OVCAR-4 it was 12.6 µM (inactive); with RXF 393, 2.9 µM (inactive); in the assay with SF-268, 20.7 µM (inactive); in the assay on SK-MEL-5, 16.9 µM (inactive). In addition, the GI50 with SN12C is 13.7 µM (inactive); in the assay on SNB-19, 18.5 µM (inactive); with SR, 2.51 µM (inactive); in the assay on SW-620, 2.24 µM (inactive); in the assay on U-251, 17.4 µM (inactive); in the assay on UACC-257, 5.41 µM (inactive).
As for `Cc1nc(N)sc1C(=O)Nc1nc[nH]n1`, the GI50 in the assay with CAKI-1, with COLO 205, with HOP-92, in the assay on Hs-578T, with K562 and in the assay with LOX IMVI was > 100 µM (inactive) each time. The GI50 in the assay on MCF7, in the assay with MDA-N, in the assay on NCI-H23, in the assay on OVCAR-4, with RXF 393 and with SF-268 was > 100 µM (inactive) each time. The GI50 is > 100 µM (inactive) in the assay on SK-MEL-5; > 100 µM (inactive) in the assay with SN12C; > 100 µM (inactive) in the assay on SNB-19; 14.1 µM (inactive) in the assay with SR; > 100 µM (inactive) in the assay with SW-620; > 100 µM (inactive) in the assay with U-251. Further, in the assay with UACC-257, the GI50 is > 100 µM (inactive).
Regarding `Nc1ncn(C/C=C/c2ccccc2)c2ncnc1-2`, the GI50 in the assay on CAKI-1 is > 100 µM (inactive); with COLO 205 it was > 100 µM (inactive); in the assay on HOP-92 it was > 100 µM (inactive); in the assay on Hs-578T, > 100 µM (inactive); in the assay with K562, 8.93 µM (inactive); in the assay on LOX IMVI, > 100 µM (inactive). The GI50 in the assay with MCF7, in the assay with MDA-N, in the assay with NCI-H23, in the assay on OVCAR-4, in the assay on RXF 393 and with SF-268 was > 100 µM (inactive) throughout. Also, the GI50 with SK-MEL-5 was > 100 µM (inactive); in the assay with SN12C, > 100 µM (inactive); in the assay with SNB-19 it was > 100 µM (inactive); with SR, 21.4 µM (inactive); in the assay with SW-620 it was > 100 µM (inactive); with U-251 it was > 100 µM (inactive). Besides, the GI50 in the assay on UACC-257 is > 100 µM (inactive).
As to `O=C(O[C@H]1CCN2C[C@H]3C[C@H](CN4C(=O)CCC[C@H]34)[C@@H]2C1)c1ccc(O)cc1`, the GI50 in the assay with CAKI-1, in the assay on CCRF-CEM, in the assay with COLO 205, in the assay with HOP-92, with Hs-578T and with K562 was > 100 µM (inactive) each time. In addition, the GI50 in the assay on LOX IMVI, with MCF7, in the assay with MDA-N, with NCI-H23, in the assay on OVCAR-4 and in the assay with RXF 393 was > 100 µM (inactive) each time. In addition, the GI50 with SF-268, in the assay on SN12C, in the assay with SNB-19, in the assay on SR, in the assay on SW-620 and in the assay on U-251 was > 100 µM (inactive) in each case. Moreover, the GI50 with UACC-257 was > 100 µM (inactive).
As for `C/C(=C\CNc1nc(Cl)nc2[nH]cnc12)CO`, the GI50 in the assay with CAKI-1, in the assay on CCRF-CEM, in the assay with COLO 205, in the assay on HOP-92, in the assay with Hs-578T and in the assay on K562 was > 100 µM (inactive) each time. In addition, the GI50 in the assay on LOX IMVI, in the assay with MCF7, with MDA-N, with NCI-H23, in the assay on OVCAR-4 and with RXF 393 was > 100 µM (inactive) throughout. For the same compound, the GI50 in the assay on SF-268, in the assay on SK-MEL-5, with SN12C, in the assay with SNB-19, in the assay with SR and in the assay with SW-620 was > 100 µM (inactive) throughout. For the same compound, the GI50 in the assay on UACC-257 was > 100 µM (inactive).
Turning to `N/N=C1/CCCc2nonc21`, the GI50 in the assay with CAKI-1, in the assay on CCRF-CEM, with COLO 205, with HOP-92, in the assay on Hs-578T and in the assay on K562 was > 100 µM (inactive) each time. Further, the GI50 in the assay with LOX IMVI, in the assay on MCF7, in the assay with MDA-N, in the assay on NCI-H23, in the assay on OVCAR-4 and in the assay on RXF 393 was > 100 µM (inactive) throughout. For the same compound, the GI50 in the assay on SF-268, with SK-MEL-5, with SN12C, in the assay with SR, with SW-620 and in the assay with U-251 was > 100 µM (inactive) in each case. Besides, in the assay with UACC-257, the GI50 was > 100 µM (inactive).
For `CCN(CC)C1Oc2cc3c(cc2C(c2ccc(OC)cc2)C1C)OCO3` (configuration not stated), the GI50 in the assay on CAKI-1 is 24.9 µM (inactive); in the assay with CCRF-CEM, 15.5 µM (inactive); with COLO 205, 17.6 µM (inactive); in the assay on HOP-92, 25.3 µM (inactive); with Hs-578T, 18.7 µM (inactive); in the assay with K562, 19.1 µM (inactive). Further, the GI50 in the assay on LOX IMVI is 16.1 µM (inactive); with MCF7, 20.9 µM (inactive); in the assay with MDA-N it was 17.5 µM (inactive); in the assay on NCI-H23 it was 21.8 µM (inactive); with RXF 393 it was 18.9 µM (inactive); in the assay on SF-268, 17.3 µM (inactive). Besides, the GI50 is 17.3 µM (inactive) in the assay with SK-MEL-5; 21.7 µM (inactive) in the assay with SN12C; 26.9 µM (inactive) in the assay on SNB-19; 12.5 µM (inactive) in the assay on SR; 30.3 µM (inactive) with SW-620; 22.2 µM (inactive) in the assay on U-251. In addition, in the assay with UACC-257, the GI50 is 15.9 µM (inactive).
For the compound `O=C(/C=C/c1ccc(O)c(O)c1O)OCCc1ccccc1`, the GI50 in the assay with CAKI-1 is > 100 µM (inactive); in the assay on COLO 205, 27.8 µM (inactive); in the assay on HOP-92, 56.1 µM (inactive); in the assay on Hs-578T, > 100 µM (inactive); in the assay with K562 it was 11.6 µM (inactive); in the assay on LOX IMVI it was 15.2 µM (inactive). Besides, the GI50 with MCF7 was 14.5 µM (inactive); in the assay with MDA-N, 13 µM (inactive); with NCI-H23, 22.9 µM (inactive); in the assay with OVCAR-4 it was 15.9 µM (inactive); in the assay on RXF 393 it was 36.1 µM (inactive); in the assay with SF-268, 32.1 µM (inactive). Also, the GI50 is > 100 µM (inactive) with SK-MEL-5; 18.4 µM (inactive) in the assay on SN12C; 49.9 µM (inactive) in the assay with SNB-19; 15.8 µM (inactive) in the assay on SR; 20.9 µM (inactive) with SW-620; 26.1 µM (inactive) in the assay on U-251. In addition, in the assay on UACC-257, the GI50 is > 100 µM (inactive).
As to `C#CCOC(=O)C(N)CCCNC(=N)N` (configuration not stated), the GI50 in the assay with CAKI-1, in the assay with CCRF-CEM, in the assay on COLO 205, in the assay with HOP-92, in the assay with Hs-578T and in the assay with LOX IMVI was > 100 µM (inactive) each time. For the same compound, the GI50 in the assay on MCF7, with MDA-N, in the assay on NCI-H23, with OVCAR-4, with RXF 393 and in the assay with SF-268 was > 100 µM (inactive) in each case. The GI50 in the assay with SK-MEL-5, in the assay with SN12C, with SNB-19, with SR, with SW-620 and in the assay on U-251 was > 100 µM (inactive) in each case. For the same compound, in the assay on UACC-257, the GI50 was > 100 µM (inactive).
